# Patent publication US11230534B2, “KDM1A inhibitors for the treatment of disease” (Imago Biosciences, Inc., priority 2015, dated 2022)
# What was measured:
# Assay type in all cases: physicochemical
# [1] = Storage at elevated temperature and humidity (40° C./75% RH, 25° C./95-97% RH; XRPD, HPLC); settings: for Storage at 40° C. and 75% RH and 25° C. and 95% RH / exposure to humidity (form, purity): scaled-up salts; for change of form under temperature and humidity conditions: conclusion
# Protocol: Example 1 was dissolved in solvent (240 mg in 2.4 mL, 10 volumes) to form stock solutions and then dispensed into vials (400 μL/˜40 mg per vial). The solutions were treated with 1 equivalent of counterions (for hydrochloric acid (HCl), sulfuric acid (H2SO4 or “SO4”), methanesulfonic acid (mesylate or “MSA”), phosphoric acid (H3PO4 or “PHOA”), and L-tartaric acid (TAR), 77 μL for 1M; for fumaric acid (FUA), 154 μL for 0.5M) using stock solutions. The solutions/suspensions were then cooled down to 0° C. at 0.2° C./min and stirred at 0° C. overnight. The resulting solids were analyzed by XRPD and those that were amorphous or poorly crystalline were then matured for 5 days. If after cooling to 0° C. a clear solution or gum was obtained, the mother liquors were removed from the vials, split in two and anti-solvent (MTBE or heptane, 400 μl) added to each of the aliquots. After anti-solvent addition, the samples were matured for 5 days. After maturation, clear solutions and gums were allowed to evaporate at ambient conditions. Suspensions were filtered, air-dried and characterized by XRPD. Any resulting crystalline solids were characterized by high resolution XRPD, 1H NMR, HPLC and one week storage at 40° C. and 75% RH.
# Example 1 was dissolved in methyethyl ketone (MEK) or acetonitrile (MeCN) (20 mg in 200 μl, 10 vol) at ambient conditions. The solutions were then heated to 50° C., treated with 1.1 or 2.1 eq of acid and stirred at this temperature for 1 hour. The resulting solutions/suspensions were then cooled down to 5° C. at 0.1° C./min and held overnight. Any solids obtained were analyzed by XRPD and those that were amorphous or poorly crystalline were then matured between 50° C./ambient on an 8-hour cycle. Any clear solutions were left to evaporate slowly at ambient conditions. If the samples evaporated to form gums, these were dissolved in IPA (10 vol, 200 μL) and then matured. Any solutions with gums present were also matured between 50° C./ambient on an 8 hour cycle. Any resulting crystalline solids were characterized by high resolution XRPD, NMR, HPLC, IC (for inorganic counter-ions) and one week storage at 40° C. and 75% RH.
# In the first experiment, Example 1 was dissolved in MEK or MeCN (100 mg in 1 mL, 10 vol) at ambient conditions. The solutions were then heated to 50° C., treated with 2.1 eq of p-toluene sulfonic acid monohydrate (1M in THF, 405 μL) and stirred constant temperature for 1 hour. The resulting suspensions were then cooled down to 5° C. at 0.1° C./min overnight. Any solids obtained were analyzed by XRPD and those that were amorphous or weakly crystalline were then matured between 50° C./ambient on an 8-hour cycle for 7 days. Any resulting crystalline solids were characterized by high resolution XRPD, ^1H NMR, HPLC, TGA, DSC and one week storage at 40° C. and 75% RH. […] However, after further maturation to try and improve the crystallinity, both tosylate salts were consistent with pTSA Form 2 by XRPD. […]
# (§1) A preliminary polymorphism assessment was carried out on the three most crystalline salt forms, the mono tartrate (TAR Form 1), mono oxalate (OXA Form 1), and bis tosylate (pTSA Form 2). Each salt was treated with the relevant solvent (10 vol, 30 mg in 300 μL) at 25° C. The samples were stirred for 10 minutes and then heated to 50° C. for 1 hour. The resulting suspensions were matured for 24 hours and any resulting solutions were allowed to evaporate slowly. After maturation or evaporation, the solids were filtered and air-dried before analysis by XRPD.
# Amorphous bis tosylate was suspended in the solvent system below (30 mg in 150 μl) at ambient conditions. The suspensions were shaken in the maturation chamber between ambient and 50° C. for 19 h (8 h cycles), then allowed to stand at ambient conditions for 10 min. An aliquot of the solid was air dried and analyzed by XRPD and then placed for 1 week at 40° C./75% RH and re-analyzed. […]
# [2] = Gravimetric Vapour Sorption (GVS); settings: for GVS water uptake: full cycle, 25° C.; for hygroscopicity: conclusion
# Protocol: Sorption isotherms were obtained using a SMS DVS Intrinsic moisture sorption analyzer, controlled by DVS Intrinsic Control software v1.0.1.2 (or v 1.0.1.3). The sample temperature was maintained at 25° C. by the instrument controls. The humidity was controlled by mixing streams of dry and wet nitrogen, with a total flow rate of 200 mL/min The relative humidity was measured by a calibrated Rotronic probe (dynamic range of 1.0-100% RH), located near the sample. The weight change, (mass relaxation) of the sample as a function of % RH was constantly monitored by the microbalance (accuracy ±0.005 mg).
# Typically 5-20 mg of sample was placed in a tared mesh stainless steel basket under ambient conditions. The sample was loaded and unloaded at 40% RH and 25° C. (typical room conditions). A moisture sorption isotherm was performed as outlined below (2 scans giving 1 complete cycle). The standard isotherm was performed at 25° C. at 10% RH intervals over a 0-90% RH range. Data analysis was carried out using Microsoft Excel using DVS Analysis Suite v6.2 (or 6.1 or 6.0).
# [3] = Variable temperature XRPD (VT-XRPD)
# Protocol: Samples run under ambient conditions were prepared as flat plate specimens using powder as received without grinding. Approximately 1-2 mg of the sample was lightly pressed on a glass slide to obtain a flat surface. Samples run under non-ambient conditions were mounted on a silicon wafer with heat-conducting compound. The sample was then heated to the appropriate temperature at 20° C./min and subsequently held isothermally for 1 minute before data collection was initiated.
# [4] = Polymorphism assessment (slurry, maturation, evaporation; XRPD); settings: 10 solvents, maturation 24 hours
# Protocol: as §1
# Amorphous bis tosylate was suspended in the solvent system below (30 mg in 150 μl) at ambient conditions. The suspensions were shaken in the maturation chamber between ambient and 50° C. for 19 h (8 h cycles), then allowed to stand at ambient conditions for 10 min. An aliquot of the solid was air dried and analyzed by XRPD and then placed for 1 week at 40° C./75% RH and re-analyzed. If solutions were recovered, the solvents were allowed to evaporate at ambient conditions and the residues were initially analyzed by XRPD.
# (8 h cycles). After 4 days the solids were filtered and air dried. Solids obtained were initially analyzed by XRPD. Maturation in n-heptane, diethyl ether, ethyl acetate, isopropyl acetate, methylisobutyl ketone, 2-propanol, methylethyl ketone, acetone, tert-butylmethyl ether, cyclohexane, 1,4-dioxane, toluene, chloroform, 1,2-dimethoxyethane, tetrahydrofuran, acetonitrile, nitromethane, and 2-propanol:water 95:5 yielded filtered solids of Form 2.
# Supernatants from the maturation experiments and solutions from cooling were allowed to slowly evaporate at ambient conditions. The residues were analyzed by XRPD. Slow evaporation from the following supernatants yielded: dimethyl sulfoxide, oil; water, oil; N,N-dimethylformamide, gum; N-methylpyrrolidone, oil; tetrahydrofuran:water 95:5, gum; and acetone:water 95:5 gum. Solutions obtained after the solubility assessment were placed in a fridge (4° C.) for 2 days and in a freezer (−20° C.) for another 2 days. No solids were recovered. […]
# [5] = Chemical stability by HPLC purity re-test / degradation; settings: for Initial Purity: HPLC 1-24 hours post-synthesis
# Protocol: Various lots of Example 1 were analyzed by HPLC shortly after synthesis (analysis from 1-24 hours post-synthesis) and re-tested for purity a unit of time later.
# Purity analysis was performed on an Agilent HP1100 series system equipped with a diode array detector and using ChemStation software vB.04.03 using one of the methods detailed below: […]
Compound,chemical stability relative to free form ([1]; limited stability studies),"Storage at 40° C. and 75% RH and 25° C. and 95% RH / exposure to humidity (form, purity) [1]",form by XRPD post GVS [2],GVS water uptake [2],temperature up to which crystalline form is unchanged (VT-XRPD) [3],change in crystalline form in polymorphism assessment [4],"Re-Test Purity ([5]; Lot 1, free base, 49 days between tests)","Initial Purity ([5]; Lot 1, free base)","Re-Test Purity ([5]; Lot 2, free base, 16 days between tests)","Initial Purity ([5]; Lot 2, free base)",stability of free base form ([5]; ambient conditions),behaviour of free base form at high humidity ([1]; high humidity),change of form under temperature and humidity conditions [1],hygroscopicity [2],loss in purity on storage ([1]; 40° C. and 75% RH),Storage at 40° C. and 75% RH (form by XRPD) ([1]; one week)
tosylate,improved chemical stability over the free form,no changes in the form or purity,No change in form was observed,~5 % w/w,170 °C,no change in crystalline form was noted in 9,,,,,,,,,,
"CN1CCN(C(=O)C(CN[C@@H]2C[C@H]2c2ccc(F)cc2)NC(=O)c2ccc(-n3ccnn3)cc2)CC1 (stereo partly drawn) [Example 1, N-[3-[[(1R,2S)-2-(4-Fluorophenyl)cyclopropyl]amino]-1-(4-methylpiperazin-1-yl)-1-oxopropan-2-yl]-4-(1H-1,2,3-triazol-1-yl)benzamide]",,,,,,,82%,93%,72%,81%,degrades at ambient conditions over time,deliquesces when subjected to high humidity,,,,
oxalate,,changed the form of the material to OXA Form 2,change in form to OXA Form 2,~12 % w/w,140 °C,only one change in form was observed,,,,,,,"changed form under humidity, but not temperature conditions",hygroscopic,,
O=C(O)C(O)C(O)C(=O)O (stereo not drawn) [tartrate],,changes in crystallinity and form,decreased crystallinity and a change in form,~30 % w/w,,five of the tartrate samples changed in form,,,,,,,change under both temperature and humidity conditions,highly hygroscopic,> 30%,no change in form was observed
